Legend:
[1] = system: a1-adrenoceptor; assay: Antagonism of phenylephrine-induced contraction in isolated rat prostate strips; settings: against phenylephrine, KMUP-1 0.01-1 μM
Protocol: Smooth muscle contractility of isolated Wistar rat prostate was used to evaluate the possible involvement of a1-adrenoceptor antagonism by KMUP-1. KMUP-1 (0.01-1 μM) or vehicle was added to organ bath, containing the Tyrode solution, for 30 minutes after a concentration-response curve to phenylephrine (0.001-100 μM) was obtained.
Concentration-response curves of phenylephrine were dose-dependently parallel-shifted to the right by KMUP-1.

[2] = system: cGMP; assay: Determination of cGMP in rat isolated prostate (radioimmunoassay); settings: for cGMP levels: 1 hour
Protocol: Isolated prostate strips from Wistar rats were prepared to determine prostate levels of cGMP and cAMP. Briefly, prostate strips were respectively incubated with KMUP-1 (10-100 μM), sildenafil (100 μM), and zaprinast (100 μM) in 10 mL Tyrode solution aerated with 95% O2 and 5% CO2 for 1 hour. To examine the possible mechanisms of action of KMUP-1, the rat prostate was pretreated with ODQ (10 μM, sGC inhibitor) and SQ22536 (9-(tetrahydro-2-furanyl)-9H-purin-6-amine, 10 μM, adenylyl cyclase inhibitor) for 30 minutes before KMUP-1 was added. After the incubation, the prostate tissues were extracted with 1 mL of 0.1 N HCl. The extracts were then lyophilized for a further measurement of cyclic GMP or cyclic AMP of each sample, using commercially available radioimmunoassay kits (Amersham Pharmacia Biotech, Buckinghamshire, England).

[3] = system: PKG; assay: Western blot of PKG expression in rat prostate
Protocol: (§1) Prostate strips were incubated with KMUP-1 (10-100 μM), sildenafil (100 μM) and zaprinast (100 μM) in 10 mL Tyrode solution aerated with 95% O2 and 5% CO2 for 1 hour. To examine the possible mechanisms of KMUP-1 action, the rat prostate were pretreated with ODQ (10 μM), SQ22536 (10 μM) and RP-8pCPT-cGMPs (10 μM) for 30 minutes prior to the addition of KMUP-1 (100 μM).
In order to examine the expression of Rho kinase in prostate, the prostate strips were pre-incubated with phenylephrine (10 μM) for 30 minutes. After a pre-treatment of phenylephrine, KMUP-1 (10-100 μM) and Y-27632 (10 μM) were further incubated for 30 minutes. After the incubation time, the prostate were extracted with protein extraction reagent (Pierce Biotechnology, Inc., Rockford, Ill., USA.). The PZ-HPV-7 cells were incubated with and without KMUP-1 (0.1-10 μM) at 30 minutes, 8 and 24 hours. They were then washed rapidly with ice-cold PBS, incubated with protein extraction reagent, and scraped from the plates. The prostate tissues and cells were sonicated three times for 10 second each time and centrifuged at 13,000 rpm at 4° C. for 30 minutes. The protein concentrations of supernatants were determined, using bovine serum albumin as the standard. Tissue and cell extract protein were then boiled at a ratio of 4:1 with sample buffer (100 mM Tris, pH 6.8, 20% glycerol, 4% SDS, and 0.2% bromphenol blue). 40-60 μg protein was used in this experiment. Electrophoresis was performed using 10 or 12% SDS-polyacrylamide gel electrophoresis and then transferred to nitrocellulose membranes (Millipore Corporation, Billerica, Mass.). The membrane was blocked with Tris-buffered saline (20 mM Tris and 137 mM NaCl, pH 7.6) containing 0.1% Tween 20 (TTBS) and 5% non-fat milk at room temperature for 1 hour, washed with TTBS, and then incubated overnight at 4° C. in the appropriate primary antibody of PKG (Santa Cruz, 1:200), sGCa1 (Santa Cruz, 1:200), PKA (Abcam, 1:1000), ROCK2 (Upstate, 1:1000), and PDE5A (BD Biosciences, 1:1000), p21 (Upstate, 1:1000). The membranes were washed in TTBS before being incubated with horseradish peroxidase-conjugated antibody against mouse, goat, or rabbit IgG (Santa Cruz, 1:1000) for 1 hour. The membrane was then washed in TTBS and developed with the enhanced chemiluminescence (ECL) for the detection of the specific antigen. The intensity of the bands was measured by densitometry.

[4] = system: PKA; assay: Western blot of PKA expression in rat prostate
Protocol: as §1
(§2) In order to examine the expression of Rho kinase in prostate, the prostate strips were pre-incubated with phenylephrine (10 μM) for 30 minutes. After a pre-treatment of phenylephrine, KMUP-1 (10-100 μM) and Y-27632 (10 μM) were further incubated for 30 minutes. After the incubation time, the prostate were extracted with protein extraction reagent (Pierce Biotechnology, Inc., Rockford, Ill., USA.). The PZ-HPV-7 cells were incubated with and without KMUP-1 (0.1-10 μM) at 30 minutes, 8 and 24 hours. They were then washed rapidly with ice-cold PBS, incubated with protein extraction reagent, and scraped from the plates. The prostate tissues and cells were sonicated three times for 10 second each time and centrifuged at 13,000 rpm at 4° C. for 30 minutes. The protein concentrations of supernatants were determined, using bovine serum albumin as the standard. […] The intensity of the bands was measured by densitometry.

[5] = system: PZ-HPV-7 human prostatic epithelial cells; assay: Cell cycle distribution by flow cytometry; type: cell-based; settings: 48 hours
Protocol: PZ-HPV-7 cells were incubated for 2 days with or without KMUP-1 (0.1-10 μM), after trypsinized for 10 minutes with 0.5% trypsin supplemented with 5.3 mM EDTA in HBBS. The cell suspension was then centrifuged at 200 g for 5 minutes at 4° C., resuspended in 1 mL ice-cold HBSS and fixed by the drop-wise addition of 2 mL of ice-cold methanol followed by continuously shaking. The processed cells were kept on ice for 30 minutes and then cells were collected by centrifugation at 90 g for 5 min and stained with propidium iodide (50 μg/mL, Sigma). RNase A (Promega, Madison, Wis.) was then added to a final concentration of 100 U/mL. Samples were stored in the dark for at least 30 minutes before an analysis on a Coulter Epics XL-MCL flow cytometer. […]

[6] = system: p21; assay: Western blot of p21 protein in PZ-HPV-7 cells; type: cell-based, human; settings: 1, 10 μM, until 24 hours
Protocol: as §2, with “standard. Tissue and cell extract protein were then boiled at a ratio of 4:1 with sample buffer (100 mM Tris, pH 6.8, 20% glycerol, 4% SDS, and 0.2% bromphenol blue). 40-60 μg protein was used in this experiment. Electrophoresis was performed using 10 or 12% SDS-polyacrylamide gel electrophoresis and then transferred to nitrocellulose membranes (Millipore Corporation, Billerica, Mass.).” for “standard.”

## Cn1c(=O)c2c(ncn2CCN2CCN(c3ccccc3Cl)CC2)n(C)c1=O [KMUP-1, 7-[2-[4-(2-Chlorobenzene)piperazinyl]ethyl]-1,3-dimethyl xanthine]
[1]
  apparent pA2: 7.82±0.33
[2]; 10 μM
  cGMP levels: 3.50±0.58 pmol mg^−1 protein
[2]; 100 μM
  cGMP levels: 7.50±0.79 pmol mg^−1 protein
[2]; KMUP-1 100 μM in the presence of ODQ 10 μM
  accumulation of cGMP: 2.54±0.73 pmol mg^−1 protein
[3]; KMUP-1 100 μM after pretreatment of RP-8-pCPT-cGMPs 10 μM for 30 minutes
  expression of PKG: significantly reduce
[3]; KMUP-1 10, 100 μM, sildenafil, zaprinast 100 μM
  expression of PKG: significantly induce
[4]; 100 μM
  expression of PKA: significantly induces
[4]; KMUP-1 100 μM with SQ22536 10 μM
  expression of PKA: reversed
[5]; 0.1 μM
  increase of G0/G1 phase compared with vehicle control: 7±1.54%
[5]; 1 μM
  increase of G0/G1 phase compared with vehicle control: 10±2.07%
[5]; 10 μM
  increase of G0/G1 phase compared with vehicle control: 12.00±0.88%
[6]
  production of p21 protein levels: potently induces

Source: patent publication US20090306093A1, “METHOD FOR TREATING PATIENT HAVING BENIGN PROSTATE HYPERPLASIA” (KAOHSIUNG MEDICAL UNIVERSITY, priority 2008, published 2009)
